Results on seven compounds are retold here after US20150051202A1, “TRIAZOLOPYRAZINE DERIVATIVES” (Merck Patent GmbH, priority 2012, published 2015).

A word on the pIC50: it is the IC50 on a negative log10 scale, so that one unit is a factor of ten.

pIC50: −log10 of the molar value.

The test system of data set [1] is tumors over-expressing IDO. The following applies: several tumor models, monotherapy; cited from earlier work.
The test system of the next data set is murine model of RA. As to conditions: cited from earlier work.
Another data set deals with RA. As to conditions: RA Phase II studies in humans; cited from earlier work.
A further data set addresses GCN2 (Homo sapiens, UniProt Q9P2K8). The experiment in a line: GCN2 enzyme assay (TR-FRET Lanthascreen, GFP-eIF2alpha substrate). It is filed as biochemical. In a few lines: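 GCN2 (30 nM) incubated at room temperature with 10 μM ATP and 80 nM GFP-eIF2alpha in 50 mM Hepes pH 7.0, 10 mM MgCl2, 5 mM MnCl2, 2 mM DTT, 0.1% BSA, 1% DMSO. Reaction stopped with EDTA; phospho-eIF2alpha detected by antibody TR-FRET, excitation 340 nm.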

The next data set addresses T1, SYK (Homo sapiens, UniProt P43405).
T1 construct: purchased BPS Bioscience, CA, USA
Nature of the data set: SYK enzyme assay (Flash plate assay / Caliper mobility shift assay). Type of data set: biochemical. Summed up:
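Flashplate: 2.5 nM SYK, 400 nM biotinylated peptide and 10 μM ATP with 33P-ATP, pH 7.5, 1 h at 30 °C, EDTA stop, radioactivity read, background with 0.1 μM staurosporine. Caliper: 90 min at 25 °C in HEPES pH 7.5, 1 mM MgCl2, 1 mM DTT, mobility-shift percent conversion of fluorescent peptide. IC50 from dose-response in both.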

In another data set the test system is 3 LL lung carcinoma. As to conditions: mice; Rodriguez 2004; cited from earlier work.

GCN2, sequence (Q9P2K8 whole entry): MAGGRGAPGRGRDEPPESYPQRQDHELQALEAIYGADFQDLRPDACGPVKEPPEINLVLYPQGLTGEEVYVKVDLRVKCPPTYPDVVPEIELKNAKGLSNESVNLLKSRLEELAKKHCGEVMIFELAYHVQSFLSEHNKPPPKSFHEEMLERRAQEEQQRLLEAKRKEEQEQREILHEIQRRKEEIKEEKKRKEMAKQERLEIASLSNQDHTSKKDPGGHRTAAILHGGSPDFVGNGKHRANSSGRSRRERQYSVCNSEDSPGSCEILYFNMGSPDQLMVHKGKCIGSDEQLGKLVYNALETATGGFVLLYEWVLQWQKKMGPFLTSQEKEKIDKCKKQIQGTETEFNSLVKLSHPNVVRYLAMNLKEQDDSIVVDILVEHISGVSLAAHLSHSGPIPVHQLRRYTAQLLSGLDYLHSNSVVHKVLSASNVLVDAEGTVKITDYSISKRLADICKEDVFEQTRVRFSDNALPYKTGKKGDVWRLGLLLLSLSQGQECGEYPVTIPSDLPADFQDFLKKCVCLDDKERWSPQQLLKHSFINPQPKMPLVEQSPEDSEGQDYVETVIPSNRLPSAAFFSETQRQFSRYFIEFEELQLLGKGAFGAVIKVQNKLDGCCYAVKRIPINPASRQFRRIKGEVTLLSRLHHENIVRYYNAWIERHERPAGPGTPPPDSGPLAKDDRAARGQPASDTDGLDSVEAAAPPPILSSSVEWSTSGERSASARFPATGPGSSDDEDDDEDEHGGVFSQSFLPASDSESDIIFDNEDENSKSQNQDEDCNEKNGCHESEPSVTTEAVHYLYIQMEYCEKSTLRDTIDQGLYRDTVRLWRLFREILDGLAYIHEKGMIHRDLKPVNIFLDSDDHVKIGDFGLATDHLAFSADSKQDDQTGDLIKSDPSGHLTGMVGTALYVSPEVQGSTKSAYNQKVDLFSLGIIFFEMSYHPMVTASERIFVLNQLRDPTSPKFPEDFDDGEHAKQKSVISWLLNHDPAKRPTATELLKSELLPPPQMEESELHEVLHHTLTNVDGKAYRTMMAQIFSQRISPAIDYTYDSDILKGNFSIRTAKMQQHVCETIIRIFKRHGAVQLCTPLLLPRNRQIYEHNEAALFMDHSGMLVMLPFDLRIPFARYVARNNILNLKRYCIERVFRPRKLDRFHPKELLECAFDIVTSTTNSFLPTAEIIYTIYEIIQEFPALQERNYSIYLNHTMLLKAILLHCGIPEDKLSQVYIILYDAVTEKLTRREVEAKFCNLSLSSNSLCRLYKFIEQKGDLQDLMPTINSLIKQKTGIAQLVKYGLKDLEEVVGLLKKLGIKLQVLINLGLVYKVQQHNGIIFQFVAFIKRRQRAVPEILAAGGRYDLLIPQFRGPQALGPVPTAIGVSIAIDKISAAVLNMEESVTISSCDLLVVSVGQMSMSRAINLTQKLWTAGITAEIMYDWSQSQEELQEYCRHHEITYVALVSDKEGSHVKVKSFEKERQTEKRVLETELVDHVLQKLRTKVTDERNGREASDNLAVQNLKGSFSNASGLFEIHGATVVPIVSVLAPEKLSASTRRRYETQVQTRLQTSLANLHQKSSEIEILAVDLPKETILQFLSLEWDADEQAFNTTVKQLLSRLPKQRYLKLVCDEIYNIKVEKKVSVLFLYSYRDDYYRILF

Take `Cn1cc(C[C@H](N)C(=O)O)c2ccccc21` [Compound 1MT, 1 methyl-tryptophan]: in data set [1], the tumor regression result is on record as “unable to elicit tumor regression”.
Consider `COc1cc(Nc2ncc(F)c(Nc3ccc4c(n3)NC(=O)C(C)(C)O4)n2)cc(OC)c1OC` [Compound R406], for which, in the data set on murine model of RA, the bone erosion entry is on record as “significantly reduced”, the clinical scores result is given as “significant improvement” and the serum cytokine concentrations result was “significantly reduced”. In the data set on RA, the “efficacy (ACR scores)” value was “efficacy (ACR scores improvement)” and the tolerability entry is “good tolerability”.
For `Cn1cc(-c2cncc3nc(Nc4ccc(CN5CCOCC5)cc4)nn23)cn1` [Compound A61, [5-(1-methyl-1H-pyrazol-4-yl)-[1,2,4]triazolo[1,5-a]pyrazin-2-yl]-(4-morpholin-4-ylmethyl-phenyl)-amine], the results for the negative logarithm of the IC50 (pIC50) at GCN2 and on SYK were above 6.00 and 5.30 to 6.00, respectively.
Take `N=C(NO)NCC[C@H](N)C(=O)O` [N-hydroxy-nor-L-Arg]: the “growth of s.c. 3 LL lung carcinoma” value in the data set with 3 LL lung carcinoma is “blocks growth”.
For the compound `COc1cc(Nc2nc3cncc(-c4cnn(C)c4)n3n2)ccc1CN1CCOCC1` [Compound A78, (3-methoxy-4-morpholin-4-ylmethyl-phenyl)-[5-(1-methyl-1H-pyrazol-4-yl)-[1,2,4]triazolo[1,5-a]pyrazin-2-yl]-amine], the values for the negative-log IC50 (pIC50) against GCN2 and at SYK were above 6.00 and 5.30 to 6.00, respectively.
Take `Cc1cc(Nc2nc3cncc(-c4cnn(C)c4)n3n2)ccc1C(=O)N1CCOCC1` [Compound A73, {2-methyl-4-[5-(1-methyl-1H-pyrazol-4-yl)-[1,2,4]triazolo[1,5-a]pyrazin-2-ylamino]-phenyl}-morpholin-4-yl-methanone]: the values for the negative logarithm of the IC50 (pIC50) against GCN2 and at SYK were above 6.00 and 5.30 to 6.00, respectively.
On the same counts, the results for `NS(=O)(=O)c1cccc(Nc2nc3cncc(-c4cnc5ccccc5c4)n3n2)c1` [Compound A7, 3-(5-quinolin-3-yl-[1,2,4]triazolo[1,5-a]pyrazin-2-ylamino)-benzenesulfonamide] are 5.00 to 5.30 and 5.30 to 6.00.
